≈ marks a conversion by molar mass, not a printed value. Like-named read-outs stand apart in the source and are kept apart here.
How the values were obtained:
green peach aphids = experiment: Test 5: Effect on green peach Aphid; assay type: in vivo; conditions: Myzus persicae, 24 hours, mortality class, read-out: Insecticidal Activity
Procedure: To a mixture of 20 parts of the compound of the present invention and 20 parts of Sorpol SM-200 (registered trademark for the product supplied by Toho Chemical Industrial Co., Ltd.) was added 60 parts of xylol, and the mixture was sufficiently blended. The obtained emulsifiable concentrate was diluted at a predetermined concentration with distilled water, and the obtained dilution was used.
Seedlings (having 3 to 4 leaves) of an eggplant grown on a pot were inoculated with green peach aphids and the insects were allowed to grow. The number of the insects was counted. A chemical dilution having a concentration of 100 ppm, prepared in the same manner as described in Test 1, was applied with a spray gun at a rate of 10 ml per pot. Then, the pot was placed in a glass green house. After 24 hours, the number of living insects was counted and the mortality was calculated.
The test was made on three pots, and the average value was calculated. In Table 6, mark "A" indicates a mortality higher than 95%, mark "B" indicates a mortality of 80 to 95%, mark "C" indicates a mortality of 50 to 80%, and mark "D" indicates a mortality lower than 50%.

German cockroach = experiment: Test 7: Effect on German Cockroach; assay type: in vivo; conditions: Blattella germanica, male adults, 24 hours, agonized and killed; for mortality at 10 mg/m2: 10 mg/m^2; for mortality at 50 mg/m2: 50 mg/m^2
Summary of the method: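 Dish bottoms were treated with 50 or 10 mg/m^2 of test compound and air-dried, then 10 male adult cockroaches were released per dish and held at 25° C. Agonized and killed adults were counted after 24 hours, averaged over two dishes.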

[1] = system: Second-instar and fifth-instar larvae of tobacco cutworm; experiment: Test 2: Tobacco Cutworm Larva Dipping Test; assay type: in vivo
two-spotted spider mite = experiment: Test 6: Effect on Two-Spotted Spider mite adults; assay type: in vivo; conditions: Tetranychus urticae; 500 ppm; adults; 24 hours; read-out: Mortality (%)
Summary of the method: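 Kidney bean leaf discs (15 mm) on wet cotton, each holding 10 adult mites, sprayed with 3 ml of a 500 ppm dilution of an emulsifiable concentrate. Kept at 25° C; dead adults counted after 24 hours to give mortality, averaged over three discs.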

[2] = system: third-instar larvae of diamond back moth; experiment: Test 4: Effect on Diamond Back Moth; assay type: in vivo; conditions: Plutella xylostella, 24 hours
Summary of the method: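 Emulsifiable concentrate diluted in water to 100 or 20 ppm and sprayed at 3 ml per cup onto cabbage leaves holding 10 third-instar diamondback moth larvae. Dead and living larvae counted after 24 h; mortality averaged over three cups.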

[3] = Test 9: Toxicity Test (acute oral, mice); conditions: mouse, in vivo, po
Summary of the method: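 Compound dissolved or suspended in corn oil was given orally to male mice of 19–23 g body weight, at 0.2 ml per 10 g. Deaths and effects were recorded after 7 days.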

Test 8: Fish Toxicity = assay type: in vivo; conditions: carp, water, carps, concentration at which 1/2 of the test fishes were killed, read-out: Fish Toxicity, TLm48
Procedure: A water tank having a width of 60 cm, a length of 30 cm and a height of 40 cm was filled with water, and 10 yearling carps having a body length of about 5 cm were set free in the tank and adapted to the environment in the tank. A test compound was applied so that the concentration in water was 10, 1, or 0.1 ppm. After 48 hours, the numbers of killed and living carps were counted and the influences on the fishes were examined.

[4] = system: sensitive green rice leafhopper (collected at Chigasaki); experiment: Test 3: Effect on Sensitive Green Rice Leafhopper; assay type: in vivo; conditions: Nephotettix cincticeps, female adults, 24 hours
Summary of the method: (§1)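 Rice seedlings (2–3 leaves) sprayed with emulsifiable-concentrate dilutions at 100 or 20 ppm, 3 ml per pot, air-dried, then infested with 10 female adults per pot. Mortality counted after 24 h and averaged over three pots.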

[5] = system: resistant green rice leafhopper (collected at Nakagawara); experiment: Test 3: Effect on Resistant Green Rice Leafhopper; assay type: in vivo, Nephotettix cincticeps Uhler; conditions: Nephotettix cincticeps, 24 h, read-out: Mortality (%) Green Rice Leafhopper Collected at Nakagawara
Summary of the method: as §1

[6] = 20 ppm, second-instar larvae, 24 hours, read-out: Mortality (%) Second-Instar Larvae
[7] = 100 ppm, second-instar larvae, 24 hours, read-out: Mortality (%) Second-Instar Larvae
[8] = topical, 24 h, read-out: Mortality (%) Fifth-Instar Larvae

Structure (SMILES) | mortality at 100 ppm (green peach aphids) [%] | mortality at 10 mg/m2 (German cockroach) [%] | mortality at 50 mg/m2 (German cockroach) [%] | mortality at 20 ppm [1, 6] [%] | mortality at 100 ppm [1, 7] [%] | mortality at 20 ppm [1, 8] [%] | mortality at 100 ppm [1, 8] [%] | mortality at 500 ppm (two-spotted spider mite) [%] | mortality at 20 ppm [2] [%] | mortality at 100 ppm [2] [%] | LD50 at 168 h [3] [mg/kg] | LC50 at 48 h (Test 8: Fish Toxicity) [mg/L] | mortality at 20 ppm [4] [%] | mortality at 100 ppm [4] [%] | mortality at 20 ppm [5] [%] | mortality at 100 ppm [5] [%]
CC(C)(COCc1ccc(F)c(Oc2ccc(Br)cc2)c1)c1ccc(Cl)cc1 [Compound 15, 3-(4-bromophenoxy)-4-fluorobenzyl 2-(4-chlorophenyl)-2-methylpropyl ether] | > 95 | 100 | 100 | 100 | 100 | 100 | 100 | 100 | 100 | 100 | > 500 | > 10 |  |  |  | 
CC(C)(COCc1ccc(F)c(Oc2ccccc2)c1)c1ccc(Br)cc1 [Compound 18, 3-Phenoxy-4-fluorobenzyl 2-(4-bromophenyl)-2-methylpropyl ether] | > 95 | 100 | 100 |  |  |  |  | 100 | 100 | 100 | > 500 | > 0.1 |  |  |  | 
COCSc1ccc(C(C)(C)COCc2ccc(F)c(Oc3ccccc3)c2)cc1 [Compound 60, 3-Phenoxy-4-fluorobenzyl 2-(4-methoxymethylthiophenyl)-2-methylpropyl ether] | > 95 | 100 | 100 |  |  |  |  |  | 95 | 100 |  | > 1 | 90 | 100 | 100 | 100
COc1ccc(C(C)(C)COCc2ccc(F)c(Oc3ccc(F)cc3)c2)cc1 [Compound 5, 3-(4-Fluorophenoxy)-4-fluorobenzyl 2-(4-methoxyphenyl)-2-methylpropyl ether] |  |  |  |  |  |  |  |  |  |  | > 500 | > 1 | 100 | 100 | 100 | 100
CCCCOc1ccc(C(C)(C)COCc2ccc(F)c(Oc3ccccc3)c2)cc1 [Compound 49] | > 95 | 100 | 100 |  |  |  |  |  |  |  |  | ~0.5 (≈ 1.18 µM) | 100 | 100 | 100 | 100
CC(C)(COCc1ccc(F)c(Oc2ccccc2)c1)c1ccc(Oc2ccccc2)cc1 [Compound 52, 3-Phenoxy-4-fluorobenzyl 2-(4-phenoxyphenyl)-2-methylpropyl ether] | > 95 | 100 | 100 |  |  |  |  | 100 |  |  |  | > 1 |  |  |  | 
CCCCCOc1ccc(C(C)(C)COCc2ccc(F)c(Oc3ccccc3)c2)cc1 [Compound 38, 3-Phenoxy-4-fluorobenzyl 2-(4-n-pentyloxyphenyl)-2-methylpropyl ether] | > 95 | 100 | 100 |  |  |  |  | 100 | 100 | 100 |  | > 1 |  |  |  | 
CC(C)(COCc1ccc(Cl)c(Oc2ccccc2)c1)c1ccc(Cl)cc1 [Compound 3, 3-Phenoxy-4-chlorobenzyl 2-(4-chlorophenyl)-2-methylpropyl ether] | > 95 | 90 | 100 |  |  |  |  | 90 | 100 | 100 | > 500 | > 10 | 80 | 100 | 90 | 100
CCOc1ccc(C(C)(C)COCc2ccc(F)c(Oc3ccc(Br)cc3)c2)cc1 [Compound 68, 3-(4-Bromophenoxy)-4-fluorobenzyl 2-(4-ethoxyphenyl)-2-methylpropyl ether] | > 95 |  |  |  |  |  |  |  | 100 | 100 | > 500 | > 1 | 100 | 100 | 100 | 100
Cc1ccc(C(C)(C)COCc2ccc(F)c(Oc3ccccc3)c2)cc1 [Compound 28, 3-phenoxy-4-fluorobenzyl 2-(4-methylphenyl)-2-methylpropyl ether] | > 95 | 100 | 100 |  |  |  |  |  | 100 | 100 |  | > 1 | 100 | 100 | 100 | 100
CC(C)(CSCc1ccc(F)c(Oc2ccccc2)c1)c1ccc(Cl)cc1 [Compound 4, 3-Phenoxy-4-fluorobenzyl 2-(4-chlorophenyl)-2-methylpropyl thioether] | > 95 | 90 | 100 |  |  |  |  | 90 | 90 | 100 | > 500 | > 0.5 |  |  |  | 
CCC(C)(COCc1ccc(F)c(Oc2ccccc2)c1)c1ccc(Cl)cc1 (stereo not drawn) [Compound 20, 3-Phenoxy-4-fluorobenzyl 2-(4-chlorophenyl)-2-methylbutyl ether] |  | 100 | 100 |  |  |  |  | 100 | 100 | 100 | > 500 | > 1 | 100 | 100 | 100 | 100
CC(C)(COCc1ccc(F)c(Oc2ccccc2)c1)c1ccc(-c2ccccc2)cc1 [Compound 61, 3-Phenoxy-4-fluorobenzyl 2-(4-biphenyl)-2-methylpropyl ether] | > 95 | 85 | 100 |  |  |  |  | 100 |  |  | > 500 | > 1 | 100 | 100 | 100 | 100
CC(C)(COCc1ccc(F)c(Oc2ccccc2)c1)c1ccccc1 [Compound 2, 3-Phenoxy-4-fluorobenzyl 2-phenyl-2-methylpropyl ether] | > 95 | 100 | 100 | 100 | 100 | 100 | 100 |  | 100 | 100 | > 500 | > 1 | 100 | 100 | 100 | 100
CC(C)(COCc1ccc(F)c(Oc2ccccc2)c1)c1cc(Cl)cc(Cl)c1 [Compound 48, 3-Phenoxy-4-fluorobenzyl 2-(3,5-dichlorophenyl)-2-methylpropyl ether] | 80 to 95 |  |  |  |  |  |  |  |  |  | > 500 | > 1 | 100 | 100 | 100 | 100
